{"source": "patent US20080249034A1", "about": "“Use of Macrolides for Treating Intestinal Inflammation” (ZAMBON S.P.A., priority 2005, published 2008)", "tested_on": "DNBS-induced colitis", "experiment": "DNBS-induced colitis in rats, macroscopic damage score", "type": "in vivo, rat", "settings": "Sprague-Dawley rats, intrarectal DNBS on day 2, DNBS group score 10.7±0.4", "protocol": "Albino male Sprague-Dawley rats, 200-250 g body weight, were treated with intrarectal DNBS (2,4-dinitrobenzensufonic acid, 30 mg in 0.25 ml of 50% ethanol) under a light anaesthesia with diethyl ether. In control experiments, the animals received 0.25 ml of saline (NaCl 0.9%). Animals were subjected to subsequent experimental procedures 6 days after induction of colitis with DNBS (Blandizzi et al., Altered prejunctional modulation of intestinal cholinergic and noradrenergic pathways by alpha-2-adrenoceptors in the presence of experimental colitis. Br J Pharmacol 139, 309-320, 2003). […]\nAt the end of treatments, animals were sacrificed and the severity of colonic inflammation was macroscopically evaluated in accordance with the criteria previously reported by Wallace and Keenan (Wallace J L and Keenan C M, An orally active inhibitor of leukotriene synthesis accelerates healing in a rat model of colitis. Am J Physiol, 258, G527-G534, 1990) with minor modifications (Blandizzi, et al., 2003). Briefly, the macroscopic evaluation is based on the following criteria: presence of adhesions between the colon and other intra-abdominal organs; consistency of colonic faecal material (as an indirect marker of diarrhea); thickening of the colonic wall; presence and extension of hyperemia and macroscopic mucosal damage (assessed with the aid of a ruler) (FIG. 2). […]"}
{"smiles": "CC[C@H]1OC(=O)[C@H](C)[C@@H](O)[C@H](C)[C@@H](O[C@@H]2O[C@H](C)C[C@H](N(C)C(C)=O)[C@H]2O)C(C)(O)C[C@@H](C)[C@H](O)[C@H](C)[C@@H](O)[C@]1(C)O", "note": "(some centres unmarked) [macrolide]", "values": [{"measurement": "anti-inflammatory effect (change of macroscopic damage score)", "setting": "100 μmol/kg/day by intragastric gavage for 7 days", "result": "−24", "unit": "%"}, {"measurement": "anti-inflammatory effect (change of macroscopic damage score)", "setting": "300 μmol/kg/day by intragastric gavage for 7 days", "result": "−51", "unit": "%"}]}
